Measurements from ChEMBL document CHEMBL1743141, “Membrane transporters in drug development” (Nat Rev Drug Discov, 2010).

What was measured:
Type in all cases: ADME
[1] = biological target: T1, Solute carrier organic anion transporter family member 2B1 (Homo sapiens, UniProt O94956); assay: Inhibitors of transporters of clinical importance in the absorption and disposition of drugs, OATP2B1
T1 sequence (O94956 whole entry): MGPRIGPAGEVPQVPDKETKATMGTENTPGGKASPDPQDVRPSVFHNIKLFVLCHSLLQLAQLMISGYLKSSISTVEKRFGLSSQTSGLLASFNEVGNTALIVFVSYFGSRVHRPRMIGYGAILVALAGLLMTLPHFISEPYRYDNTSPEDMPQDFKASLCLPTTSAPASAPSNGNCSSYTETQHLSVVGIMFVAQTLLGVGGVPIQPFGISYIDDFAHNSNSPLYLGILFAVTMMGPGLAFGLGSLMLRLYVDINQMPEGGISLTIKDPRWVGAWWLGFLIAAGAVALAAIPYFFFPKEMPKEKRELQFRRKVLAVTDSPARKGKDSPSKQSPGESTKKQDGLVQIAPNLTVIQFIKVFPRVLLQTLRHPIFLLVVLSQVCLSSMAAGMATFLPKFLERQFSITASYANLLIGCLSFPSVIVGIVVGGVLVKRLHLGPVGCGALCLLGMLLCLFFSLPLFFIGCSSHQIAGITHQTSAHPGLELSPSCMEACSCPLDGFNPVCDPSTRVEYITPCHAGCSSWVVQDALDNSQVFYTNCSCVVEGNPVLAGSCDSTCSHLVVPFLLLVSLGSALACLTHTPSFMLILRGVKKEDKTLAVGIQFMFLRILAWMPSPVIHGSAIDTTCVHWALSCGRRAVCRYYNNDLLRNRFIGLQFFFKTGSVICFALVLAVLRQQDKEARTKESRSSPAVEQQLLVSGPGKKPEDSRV

[2] = biological target: T2, Solute carrier organic anion transporter family member 1A2 (Homo sapiens, UniProt P46721); assay: Inhibitors of transporters of clinical importance in the absorption and disposition of drugs, OATP1A2
T2 sequence (P46721 whole entry): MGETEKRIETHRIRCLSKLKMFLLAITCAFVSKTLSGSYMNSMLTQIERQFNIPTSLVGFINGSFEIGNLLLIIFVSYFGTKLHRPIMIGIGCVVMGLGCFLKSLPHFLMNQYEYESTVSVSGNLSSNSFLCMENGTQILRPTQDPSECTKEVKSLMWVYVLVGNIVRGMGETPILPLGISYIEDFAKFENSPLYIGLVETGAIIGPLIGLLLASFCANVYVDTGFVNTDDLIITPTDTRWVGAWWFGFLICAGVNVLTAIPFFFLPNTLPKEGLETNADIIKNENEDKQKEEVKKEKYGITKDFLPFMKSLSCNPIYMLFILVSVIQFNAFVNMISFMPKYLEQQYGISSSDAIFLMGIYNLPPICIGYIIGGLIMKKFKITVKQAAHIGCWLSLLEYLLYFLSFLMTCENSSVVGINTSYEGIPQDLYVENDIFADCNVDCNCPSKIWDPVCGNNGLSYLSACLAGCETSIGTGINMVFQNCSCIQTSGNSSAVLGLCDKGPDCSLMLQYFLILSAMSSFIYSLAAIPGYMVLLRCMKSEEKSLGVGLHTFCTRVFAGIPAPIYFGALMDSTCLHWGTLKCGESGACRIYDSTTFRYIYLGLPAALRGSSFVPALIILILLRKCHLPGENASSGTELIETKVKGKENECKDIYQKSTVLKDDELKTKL

Bile salt export pump = Bile salt export pump (Homo sapiens, UniProt O95342); assay: Inhibitors of transporters of clinical importance in the absorption and disposition of drugs, BSEP
Bile salt export pump, sequence (O95342 whole entry): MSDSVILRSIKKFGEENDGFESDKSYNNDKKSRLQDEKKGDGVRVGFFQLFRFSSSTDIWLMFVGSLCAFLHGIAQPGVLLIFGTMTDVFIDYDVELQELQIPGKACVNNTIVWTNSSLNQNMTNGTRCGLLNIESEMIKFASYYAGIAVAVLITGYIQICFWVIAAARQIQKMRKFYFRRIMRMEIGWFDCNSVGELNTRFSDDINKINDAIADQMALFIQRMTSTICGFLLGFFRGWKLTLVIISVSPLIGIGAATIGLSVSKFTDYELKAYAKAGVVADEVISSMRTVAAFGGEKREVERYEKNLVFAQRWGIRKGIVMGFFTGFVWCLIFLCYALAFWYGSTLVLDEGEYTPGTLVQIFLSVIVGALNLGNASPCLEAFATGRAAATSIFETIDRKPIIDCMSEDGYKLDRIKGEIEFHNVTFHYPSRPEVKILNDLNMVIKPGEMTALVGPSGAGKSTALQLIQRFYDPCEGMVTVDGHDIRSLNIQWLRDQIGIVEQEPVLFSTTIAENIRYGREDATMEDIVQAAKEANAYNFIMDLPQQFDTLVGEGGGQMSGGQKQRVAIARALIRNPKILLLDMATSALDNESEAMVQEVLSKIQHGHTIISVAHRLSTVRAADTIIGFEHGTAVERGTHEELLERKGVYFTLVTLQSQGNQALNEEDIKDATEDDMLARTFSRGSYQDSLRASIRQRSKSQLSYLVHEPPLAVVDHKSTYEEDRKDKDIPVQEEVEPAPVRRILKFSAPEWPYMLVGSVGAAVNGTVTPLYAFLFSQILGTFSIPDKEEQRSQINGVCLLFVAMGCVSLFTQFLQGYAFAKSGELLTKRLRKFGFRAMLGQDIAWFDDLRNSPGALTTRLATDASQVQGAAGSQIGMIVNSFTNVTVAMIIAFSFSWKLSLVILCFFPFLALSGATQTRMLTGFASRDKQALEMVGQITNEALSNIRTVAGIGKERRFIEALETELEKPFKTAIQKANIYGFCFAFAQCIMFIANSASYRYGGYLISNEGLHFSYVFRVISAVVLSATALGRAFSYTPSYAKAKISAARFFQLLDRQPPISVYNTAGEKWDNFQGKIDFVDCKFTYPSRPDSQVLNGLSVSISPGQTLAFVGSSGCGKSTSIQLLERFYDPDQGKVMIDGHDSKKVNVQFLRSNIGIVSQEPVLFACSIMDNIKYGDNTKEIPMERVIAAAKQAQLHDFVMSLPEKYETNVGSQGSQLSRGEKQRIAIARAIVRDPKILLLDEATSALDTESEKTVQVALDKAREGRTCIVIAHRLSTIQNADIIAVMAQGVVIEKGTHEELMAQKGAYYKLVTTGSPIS

[3] = biological target: T3, Solute carrier organic anion transporter family member 1B3 (Homo sapiens, UniProt Q9NPD5); assay: Inhibitors of transporters of clinical importance in the absorption and disposition of drugs, OATP1B3
T3 sequence (Q9NPD5 whole entry): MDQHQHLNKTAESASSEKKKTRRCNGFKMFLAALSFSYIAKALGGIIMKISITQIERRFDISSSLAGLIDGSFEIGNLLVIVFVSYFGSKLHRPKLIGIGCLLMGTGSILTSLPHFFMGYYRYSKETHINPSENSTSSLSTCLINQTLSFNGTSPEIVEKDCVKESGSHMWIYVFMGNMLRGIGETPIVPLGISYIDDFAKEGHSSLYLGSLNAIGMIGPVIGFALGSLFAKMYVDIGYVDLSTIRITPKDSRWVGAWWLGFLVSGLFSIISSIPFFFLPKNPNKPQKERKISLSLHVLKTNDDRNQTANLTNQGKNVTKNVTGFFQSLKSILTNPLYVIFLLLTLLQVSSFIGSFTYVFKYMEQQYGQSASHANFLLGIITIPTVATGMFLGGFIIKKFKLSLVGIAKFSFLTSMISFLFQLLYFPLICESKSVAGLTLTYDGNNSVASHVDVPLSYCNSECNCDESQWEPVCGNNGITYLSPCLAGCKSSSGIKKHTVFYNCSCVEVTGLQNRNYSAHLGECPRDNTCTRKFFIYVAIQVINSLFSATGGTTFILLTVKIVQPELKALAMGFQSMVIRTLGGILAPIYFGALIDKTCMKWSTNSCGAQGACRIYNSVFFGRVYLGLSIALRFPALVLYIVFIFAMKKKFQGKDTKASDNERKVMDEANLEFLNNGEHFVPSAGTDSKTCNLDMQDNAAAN

[4] = biological target: T4, Solute carrier organic anion transporter family member 1B1 (Homo sapiens, UniProt Q9Y6L6); assay: Inhibitors of transporters of clinical importance in the absorption and disposition of drugs, OATP1B1
T4 sequence (Q9Y6L6 whole entry): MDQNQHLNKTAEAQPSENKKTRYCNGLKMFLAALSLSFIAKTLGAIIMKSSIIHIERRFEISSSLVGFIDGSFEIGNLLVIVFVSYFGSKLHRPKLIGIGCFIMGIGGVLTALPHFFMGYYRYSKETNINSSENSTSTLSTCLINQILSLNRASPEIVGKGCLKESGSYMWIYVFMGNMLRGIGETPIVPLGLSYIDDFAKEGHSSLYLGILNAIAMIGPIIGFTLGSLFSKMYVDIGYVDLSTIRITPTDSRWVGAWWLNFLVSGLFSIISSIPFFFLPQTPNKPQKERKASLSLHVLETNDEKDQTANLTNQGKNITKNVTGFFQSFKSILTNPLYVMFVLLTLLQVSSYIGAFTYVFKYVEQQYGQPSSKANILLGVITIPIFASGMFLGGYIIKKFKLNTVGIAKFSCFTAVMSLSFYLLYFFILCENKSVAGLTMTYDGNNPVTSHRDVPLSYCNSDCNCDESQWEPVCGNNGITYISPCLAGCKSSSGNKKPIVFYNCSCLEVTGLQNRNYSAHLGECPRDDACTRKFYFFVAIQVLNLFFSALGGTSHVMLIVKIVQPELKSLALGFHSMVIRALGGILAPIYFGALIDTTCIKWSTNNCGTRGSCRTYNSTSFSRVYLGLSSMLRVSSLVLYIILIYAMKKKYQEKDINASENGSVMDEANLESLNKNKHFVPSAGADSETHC

Measured: Activity

CO[C@H]1/C=C/O[C@@]2(C)Oc3c(C)c(O)c4c(O)c(c(/C=N/N5CCN(C)CC5)c(O)c4c3C2=O)NC(=O)/C(C)=C\C=C\[C@H](C)[C@H](O)[C@@H](C)[C@@H](O)[C@@H](C)[C@H](OC(C)=O)[C@@H]1C [RIFAMPIN]
transporter inhibitor: all assays above
